# Tested on: 26S proteasome
# Assay: In vitro deubiquitination assay of K63 polyubiquitinated tau with 26S proteasome
# Assay type: biochemical
# Conditions: Ub-H 1 or 10 μM, 26S proteasome 40 or 80 nM, 2 h 37° C.
# Protocol: In Vitro Ubiquitination and Deubiquitination Assay—His-tagged tau construct was expressed in HEK 293 cells by calcium phosphate method. The cells were collected, washed with PBS and lysed with SDS lysis buffer. The lysate was immunoprecipitated with tau antibody and bound to secondary antibody coupled with agarose beads. Fifty microliters of the reaction buffer (50 mM Tris pH 7.5, 2.5 mM MgCl2, 2 mM DTT, 2 mM ATP) containing 100 ng El, 200 ng UbcH7 (E2), 100 μg TRAF6 (E3) and 5 μg of GST-WT Ub, or its mutants K29R, K48R, and K63R Ub was added to the immunoprecipitated tau. The beads were incubated at 37° C. for 2 h by continuous shaking, then washed three times with reaction buffer. The proteins were released by boiling for 2 min in SDS-PAGE sample buffer, electrophoresed on 7.5% SDS-PAGE and western blotted with antibody to ubiquitin and tau. For the in vitro deubiquitination assay, the ubiquitinated tau was treated with 26S proteasome (40 or 80 nM) in 30 μl of buffer containing 50 mM Tris-HCl, pH 7.5, 2 mM MgCl2, 2 mM ATP for 2 h at 37° C. The deubiquitination of tau by the 26S proteasome was blocked by the addition of ubiquitin aldehyde (Ub-H), an inhibitor of ubiquitin isopeptidases (1 or 10 μM). The samples were boiled in sample buffer, resolved by 7.5% SDS-PAGE and western blotted with anti-ubiquitin or anti-tau. […]
substance,measurement,value
ubiquitin aldehyde [Ub-H],polyubiquitin degradation (deubiquitination of tau) by 26S proteasome,inhibited
